The text below walks through data of patent US20120014880A1, “METHOD FOR THE PREVENTION AND TREATMENT OF ESSENTIAL TREMOR BY REGULATING alpha1G T-TYPE CALCIUM CHANNEL OR BY T-TYPE CALCIUM CHANNEL BLOCKERS” (Korea Advanced Institute of Science and Technology, priority 2007, published 2012).

This experiment deals with harmaline induced tremor. Kind of experiment: Inhibition of harmaline induced tremor by T-type channel blockers, measured with tremor quantification apparatus. The format is in vivo, mouse. The source says:
In the screening method of the present invention, symptoms of essential tremor of step 3) are involuntary, regular movements of hands, arms, head, face, vocal band, trunk or legs. The symptoms can be checked by movement artifact of electroenphalograph (EEG) or tremor quantification apparatus, but not always limited thereto. The tremor quantification apparatus herein is to detect tremor of the mouse, in which stainless test cage is hung on the support and the bottom of the cage is attached with accelerometer connected with electric wire to analog-digital converter so that the generated analog signals can be converted into digital signals recognizable by computer. Thereby, tremor of the mouse can be measured by analyzing the digital signals recognized by computer. […] When the strength of oscillation for 5 seconds under the frequency of 10-18 Hz, that is the characteristic frequency of harmaline induced tremor, was at least 65 dB, it was diagnosed as tremor and the time point of break (onset), duration, strength, and the maximum frequency were all measured and compared between the wild type mice and the transgenic mice. The method for measuring tremor is developed on the basis of described method in the following references (Long M A. et al., J. Neurosci. 2002 Dec. 15, 22(24):10898-905; Milner, T E. et al., J. Neurophysiol. 1995 June, 73(6):2568-77).
The α1G−/−transgenic mice generated in Example 1 and the wild-type mice were administered with the tremor inducing agents, oxotremorine (0.3 mg/kg), penitrem A (1.0 mg/kg) and harmaline (9 mg/kg) respectively by intraperitoneal injection to induce tremor. Tremor was investigated by using movement artifact of electroenphalograph (EEG) and tremor quantification apparatus designed by the present inventors. […] The accelerometer was connected to analog-digital converter (Digidata1320, Axon instrument Inc) by electric wire so that the generated analog signals could be converted into digital signals recognizable by computer. Thereby, tremor of the mouse was measured by analyzing the digital signals recognized by computer. The accelerometer was quipped to the test cage where the animals were located, and the test cage was hung in the air. The level of tremor of the animal was quantified by measuring the oscillation of the test cage. […] When the strength of oscillation for 5 seconds under the frequency of 10-18 Hz, that is the characteristic frequency of harmaline induced tremor, was at least 65 dB, it was diagnosed as tremor and the time point of development of tremor (onset), duration, strength, and the maximum frequency were all measured and compared between the wild type mice and the knockout mice.
The wild-type mouse (α1G+/+) was administered with 10 mg/kg of mibefradil by intraperitoneal injection 30 minutes before harmaline injection to investigate the therapeutic effect of mibefradil on harmaline induced tremor. In the meantime, osmotic pump (Model 1002, 0.25 ul/hour, Alzet) containing 20 mM of mibefradil was inserted into the brain of the wild-type mouse (α1G+/+). Two days later, the therapeutic effect on harmaline induced tremor was investigated by using the tremor quantification apparatus of Example 2.
The wild-type mice (α1G+/+) were administered with 150 mg/kg and 300 mg/kg of ethosuximide by intraperitoneal injection 30 minutes before harmaline injection to investigate the therapeutic effect of ethosuximide on harmaline induced tremor. For the investigation, the tremor quantification apparatus of Example 2 was used.

Setting [1] is: wild-type mice (α1G+/+), 300 mg/kg intraperitoneal injection 30 minutes before harmaline injection.

In the case of `CCC1(C)CC(=O)NC1=O` (stereo not drawn) [ethosuximide], the “tremor inhibiting effect on harmaline induced tremor” value (shortened to “tremor inhibiting effect”) (wild-type mice (α1G+/+), 150 mg/kg intraperitoneal injection 30 minutes before harmaline injection) was “tremor inhibiting effect was observed”. Moreover, under setting [1], the “mice that did not exhibit oscillation, symptom of tremor” value came to 60%; the “mice that showed tremor” value is given as 40%; the “tremor inhibiting effect” value is given as “tremor inhibiting effect was observed”.

Turning to `COCC(=O)O[C@]1(CCN(C)CCCc2nc3ccccc3[nH]2)CCc2cc(F)ccc2[C@@H]1C(C)C` [mibefradil], the “tremor inhibiting effect” value is listed as “tremor inhibiting effect was not detected” (wild-type mouse (α1G+/+), 10 mg/kg intraperitoneal injection 30 minutes before harmaline injection) and “tremor inhibiting effect was observed” (wild-type mouse (α1G+/+), osmotic pump containing 20 mM, 0.25 ul/hour, directly into inferior olive (IO) of the brain, two days later).
